Patent US6919314B1, “Bioactive whey protein hydrolysate” (New Zealand Dairy Board, priority 1998, dated 2005)
Marks after values point to notes of the source that are not given here. Ends that are not written are not given here. Peptide text beside a SMILES is read from it.

Legend:
rabbit lung ACE = molecular target: T1, rabbit lung ACE (Oryctolagus cuniculus, UniProt P12822); experiment: ACE-I activity using FAPGG as substrate (method of Cushman & Cheung); type: biochemical; conditions: colorimetric substrate FAPGG; for IC50: purified peptide, read-out: Activity (IC50 in mg L^−1) (converted)
T1 construct: reagents from Sigma product 305-10) consisting of rabbit lung ACE; purchased Sigma Chemical Corporation, St Louis, Mo., USA 305-10; host or cells: rabbit lung (tissue-derived enzyme)
T1 sequence (P12822 34-1310): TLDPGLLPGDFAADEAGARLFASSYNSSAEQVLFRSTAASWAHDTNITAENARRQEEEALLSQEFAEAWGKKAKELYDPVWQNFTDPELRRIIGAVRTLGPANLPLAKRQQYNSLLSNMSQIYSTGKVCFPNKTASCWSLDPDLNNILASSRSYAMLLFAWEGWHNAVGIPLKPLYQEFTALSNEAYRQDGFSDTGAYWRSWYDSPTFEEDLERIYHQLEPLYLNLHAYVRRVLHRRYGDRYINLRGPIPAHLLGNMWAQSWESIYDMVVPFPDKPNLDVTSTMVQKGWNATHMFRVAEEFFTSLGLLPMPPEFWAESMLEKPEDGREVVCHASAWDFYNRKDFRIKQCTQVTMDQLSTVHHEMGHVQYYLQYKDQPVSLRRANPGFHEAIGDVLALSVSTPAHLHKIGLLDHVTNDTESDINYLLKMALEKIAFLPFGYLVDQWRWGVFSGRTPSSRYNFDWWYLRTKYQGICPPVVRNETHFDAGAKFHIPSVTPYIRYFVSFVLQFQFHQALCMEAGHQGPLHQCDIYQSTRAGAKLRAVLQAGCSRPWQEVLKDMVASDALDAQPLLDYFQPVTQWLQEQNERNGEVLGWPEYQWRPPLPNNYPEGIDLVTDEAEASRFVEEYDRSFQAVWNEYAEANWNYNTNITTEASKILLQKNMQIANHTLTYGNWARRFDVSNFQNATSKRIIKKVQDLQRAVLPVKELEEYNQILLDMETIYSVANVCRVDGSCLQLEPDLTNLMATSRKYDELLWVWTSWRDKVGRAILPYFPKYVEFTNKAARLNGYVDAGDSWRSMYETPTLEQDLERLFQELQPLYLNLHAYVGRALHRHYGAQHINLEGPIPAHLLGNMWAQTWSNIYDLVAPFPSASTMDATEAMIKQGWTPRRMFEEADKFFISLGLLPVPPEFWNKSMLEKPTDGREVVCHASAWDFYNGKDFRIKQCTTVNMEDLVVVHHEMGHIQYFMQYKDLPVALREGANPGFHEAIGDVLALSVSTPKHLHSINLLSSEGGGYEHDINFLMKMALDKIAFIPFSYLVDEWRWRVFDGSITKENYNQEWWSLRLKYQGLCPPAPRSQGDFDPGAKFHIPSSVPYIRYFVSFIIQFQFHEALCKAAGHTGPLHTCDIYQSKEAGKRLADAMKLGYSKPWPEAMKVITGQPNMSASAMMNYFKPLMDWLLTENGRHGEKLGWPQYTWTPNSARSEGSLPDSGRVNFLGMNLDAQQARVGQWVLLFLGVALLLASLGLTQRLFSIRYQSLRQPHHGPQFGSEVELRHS
Description: A pH of 7.0 and an enzyme substrate ratio of 0.3% w/w was used for the hydrolysis. The hydrolysate was adjusted to pH 5.0 and heated at 65° C. for 30 min to inactivate the enzyme. […] ACE-I activities are expressed as the amount of material (g/L) needed to reduce the activity of the ACE-I enzyme by 50%.
Each fraction was lyophilised and the amount of peptide material present was measured gravimetrically. […] If a peptide inhibits ACE, the change in absorbance at 340 nm is reduced. […] The eluate was collected using the fraction collector set to collect 0.5 min fractions.
Samples from each fraction were analysed using an analytical reverse-phase HPLC column, and those fractions containing a single, identical peptide were pooled. Each pooled fraction was lyophilised and the weight of the peptide present was determined gravimetrically. The purified peptides were assayed for ACE-I activity as before and the IC50 was calculated for […] individual peptide.

[1] = tested on: spontaneously hypertensive rats (SHR/N); experiment: In vivo blood pressure in spontaneously hypertensive rats (tail cuff); design: species or system rat; conditions: 30 mg/Kg bodyweight/day for 8 weeks, compared with the hydrolysate
Description: The rat strain has been specifically selected for their development of high blood pressure on maturing, and is used extensively to monitor the effect of blood pressure lowering agents.
Eight week old rats were individually housed in plastic rat cages and kept in temperature controlled facilities throughout the trial. They had unlimited access to water and were fed commercial rat chow ad libitum. The test products were given orally as a single daily dose for 8 weeks during which time changes in blood pressure were monitored.

Compound	IC50 (rabbit lung ACE)	other results
CC(C)C[C@H](N)C(=O)N[C@@H](Cc1ccccc1)C(=O)N[C@@H](CO)C(=O)N[C@@H](Cc1c[nH]cn1)C(=O)O [LFSH, Leu-Phe-Ser-His] (H-LFSH-OH; N-terminus and C-terminus assumed)	59.7 µM	
CSCC[C@H](N)C(=O)N[C@@H](CCCCN)C(=O)NCC(=O)O [MKG, Met-Lys-Gly] (H-Met-Lys-Gly-OH; N-terminus and C-terminus assumed)	71.8 µM	
C[C@H](CS)C(=O)N1CCC[C@H]1C(=O)O [captopril]		systolic blood pressure [1]: effect of the hydrolysate was not as great as that of captopril
ALPMH [ALPMH, Ala-Leu-Pro-Met-His]	21.1 µM	
ILKEKH [ILKEKH, Ile-Leu-Lys-Glu-Lys-His]	26.1 µM	
LDIQK [LDIQK, Leu-Asp-Ile-Gln-Lys]	27.6 µM	
LHLPLP [LHLPLP, Leu-His-Leu-Pro-Leu-Pro]	10.2 µM	
LIVTQ [LIVTQ, Leu-Ile-Val-Thr-Gln]	29.7 µM	
LVYPFPGPIPNSLPQNIPP	9.22 µM	
Leu-Phe-Arg-Glu (LFRE; not fully specified; printed: Leu-Phe-Arg-Glu) [LFRQ, origin αs1-CN(136-139)]		Activity (IC50 in mg L^−1) (rabbit lung ACE; activity measured with that of another peptide of unknown origin): 17^h mg L^−1
VTSTAV [VTSTAV, Val-Thr-Ser-Thr-Ala-Val]	52 µM	
